Measurements as given in ChEMBL document CHEMBL1201862, “PubChem BioAssay data set” (2004).
Calls of active or inactive are those of the source.

Tests used:
Type in all cases: functional
[1] = target: Vascular endothelial growth factor receptor 2 (Homo sapiens, UniProt P35968)
Activin receptor type-1 = Activin receptor type-1 (Homo sapiens, UniProt Q04771); assay: Navigating the Kinome. Panel member name: ACVR1
[2] = target: Dual specificity mitogen-activated protein kinase kinase 2 (Homo sapiens, UniProt P36507); assay: Navigating the Kinome. Panel member name: MAP2K2
[3] = target: Inhibitor of nuclear factor kappa-B kinase subunit epsilon (Homo sapiens, UniProt Q14164); assay: Navigating the Kinome. Panel member name: IKBKE
[4] = target: Macrophage-stimulating protein receptor (Homo sapiens, UniProt Q04912); assay: Navigating the Kinome. Panel member name: MST1R
[5] = target: Serine/threonine-protein kinase Nek2 (Homo sapiens, UniProt P51955)
[6] = target: Macrophage colony-stimulating factor 1 receptor (Homo sapiens, UniProt P07333);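 also: value comes from the Navigating the Kinome screening panel, CSF1R member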
[7] = target: Tyrosine-protein kinase receptor TYRO3 (Homo sapiens, UniProt Q06418);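 also: TYRO3 value obtained as one member of a kinome-wide profiling panel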
[8] = target: Calcium/calmodulin-dependent protein kinase type II subunit alpha (Homo sapiens, UniProt Q9UQM7); assay: Navigating the Kinome. Panel member name: CAMK2A
[9] = target: Dual specificity tyrosine-phosphorylation-regulated kinase 1B (Homo sapiens, UniProt Q9Y463); assay: Navigating the Kinome. Panel member name: DYRK1B
[10] = target: Rho-associated protein kinase 1 (Homo sapiens, UniProt Q13464);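 also: measured within a broad kinome-wide panel profiling many kinases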
Sequence of Rho-associated protein kinase 1 (Q13464 whole entry): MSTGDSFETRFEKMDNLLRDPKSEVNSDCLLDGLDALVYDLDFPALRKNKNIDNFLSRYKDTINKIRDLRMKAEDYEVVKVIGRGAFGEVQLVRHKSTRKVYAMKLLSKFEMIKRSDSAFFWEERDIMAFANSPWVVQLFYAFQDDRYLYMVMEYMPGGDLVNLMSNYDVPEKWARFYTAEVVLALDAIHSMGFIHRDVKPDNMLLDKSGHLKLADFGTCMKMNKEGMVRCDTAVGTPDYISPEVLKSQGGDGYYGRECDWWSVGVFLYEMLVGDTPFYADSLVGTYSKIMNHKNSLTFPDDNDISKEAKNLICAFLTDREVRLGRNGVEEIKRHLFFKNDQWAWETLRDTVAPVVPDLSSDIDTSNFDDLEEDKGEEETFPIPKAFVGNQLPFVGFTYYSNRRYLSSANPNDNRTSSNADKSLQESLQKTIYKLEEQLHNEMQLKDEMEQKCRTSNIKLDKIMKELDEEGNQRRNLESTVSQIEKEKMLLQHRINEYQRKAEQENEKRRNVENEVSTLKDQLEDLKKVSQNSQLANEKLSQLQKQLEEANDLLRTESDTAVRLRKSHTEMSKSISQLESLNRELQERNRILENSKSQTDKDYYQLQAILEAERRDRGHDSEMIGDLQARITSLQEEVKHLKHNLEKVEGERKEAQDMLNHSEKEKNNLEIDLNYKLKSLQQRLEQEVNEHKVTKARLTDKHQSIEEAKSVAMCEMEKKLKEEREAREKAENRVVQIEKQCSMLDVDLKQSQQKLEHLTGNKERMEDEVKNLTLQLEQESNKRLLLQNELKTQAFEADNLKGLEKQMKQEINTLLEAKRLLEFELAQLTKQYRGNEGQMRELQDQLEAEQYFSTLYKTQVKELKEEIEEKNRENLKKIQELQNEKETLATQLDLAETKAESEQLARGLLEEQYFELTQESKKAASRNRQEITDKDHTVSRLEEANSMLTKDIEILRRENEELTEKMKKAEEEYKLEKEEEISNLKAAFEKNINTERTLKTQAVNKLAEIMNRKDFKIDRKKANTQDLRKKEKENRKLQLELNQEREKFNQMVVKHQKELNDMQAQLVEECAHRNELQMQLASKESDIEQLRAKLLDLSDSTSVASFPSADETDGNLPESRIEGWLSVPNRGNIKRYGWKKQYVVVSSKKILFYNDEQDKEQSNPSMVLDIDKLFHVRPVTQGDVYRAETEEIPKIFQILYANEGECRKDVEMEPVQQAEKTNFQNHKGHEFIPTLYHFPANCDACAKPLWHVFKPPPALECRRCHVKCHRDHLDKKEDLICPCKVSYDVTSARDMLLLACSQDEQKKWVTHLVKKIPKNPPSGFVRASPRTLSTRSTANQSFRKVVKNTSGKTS

[11] = target: Fibroblast growth factor receptor 1 (Homo sapiens, UniProt P11362)
[12] = target: Cyclin-dependent kinase 8 (Homo sapiens, UniProt P49336); assay: Navigating the Kinome. Panel member name: CDK8
[13] = target: Hepatocyte growth factor receptor (Homo sapiens, UniProt P08581);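 also: kinase panel profiling across the kinome, with MET as the panel member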
[14] = target: Cyclin-dependent kinase 5 (Homo sapiens, UniProt Q00535);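 also: CDK5 measured as one member of a kinase profiling panel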
[15] = target: High affinity nerve growth factor receptor (Homo sapiens, UniProt P04629);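 also: NTRK1 tested as one member of a kinome-wide profiling panel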
[16] = target: 5'-AMP-activated protein kinase catalytic subunit alpha-1 (Homo sapiens, UniProt Q13131)
Sequence of 5'-AMP-activated protein kinase catalytic subunit alpha-1 (Q13131 whole entry): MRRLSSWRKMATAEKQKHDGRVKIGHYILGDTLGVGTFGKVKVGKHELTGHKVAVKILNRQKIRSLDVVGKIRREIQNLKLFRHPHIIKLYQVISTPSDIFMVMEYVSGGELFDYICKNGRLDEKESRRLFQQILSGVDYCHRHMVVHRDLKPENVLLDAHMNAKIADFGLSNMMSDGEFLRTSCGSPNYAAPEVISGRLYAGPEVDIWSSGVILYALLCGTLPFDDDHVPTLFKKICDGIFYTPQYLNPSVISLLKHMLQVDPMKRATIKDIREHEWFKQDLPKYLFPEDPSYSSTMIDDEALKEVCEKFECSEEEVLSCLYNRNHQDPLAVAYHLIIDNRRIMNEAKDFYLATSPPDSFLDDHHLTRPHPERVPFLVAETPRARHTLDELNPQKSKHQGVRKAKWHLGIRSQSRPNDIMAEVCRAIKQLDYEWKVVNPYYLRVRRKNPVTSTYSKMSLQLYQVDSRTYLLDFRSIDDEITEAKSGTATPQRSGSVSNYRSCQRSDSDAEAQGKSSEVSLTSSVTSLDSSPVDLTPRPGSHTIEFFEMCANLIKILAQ

[17] = target: Vascular endothelial growth factor receptor 1 (Homo sapiens, UniProt P17948);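 also: measured within a kinome-wide profiling panel, FLT1 as the panel member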
[18] = target: Death-associated protein kinase 3 (Homo sapiens, UniProt O43293);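 also: measured as one member of a kinome-wide profiling panel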
[19] = target: Serine/threonine-protein kinase D3 (Homo sapiens, UniProt O94806);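 also: determined within a kinase panel screen, with PRKCN as the panel member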
[20] = target: Receptor-type tyrosine-protein kinase FLT3 (Homo sapiens, UniProt P36888);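 also: FLT3 was tested as one member of a kinome-wide kinase panel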
[21] = target: cAMP-dependent protein kinase catalytic subunit PRKX (Homo sapiens, UniProt P51817)
[22] = target: Mitogen-activated protein kinase 8 (Homo sapiens, UniProt P45983);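 also: value comes from one member of a kinome-wide kinase profiling panel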
[23] = target: Tyrosine-protein kinase Fyn (Homo sapiens, UniProt P06241)
[24] = target: Mitogen-activated protein kinase 9 (Homo sapiens, UniProt P45984);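 also: value from a kinome panel profiling assay, MAPK9 panel entry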
Sequence of Mitogen-activated protein kinase 9 (P45984 whole entry): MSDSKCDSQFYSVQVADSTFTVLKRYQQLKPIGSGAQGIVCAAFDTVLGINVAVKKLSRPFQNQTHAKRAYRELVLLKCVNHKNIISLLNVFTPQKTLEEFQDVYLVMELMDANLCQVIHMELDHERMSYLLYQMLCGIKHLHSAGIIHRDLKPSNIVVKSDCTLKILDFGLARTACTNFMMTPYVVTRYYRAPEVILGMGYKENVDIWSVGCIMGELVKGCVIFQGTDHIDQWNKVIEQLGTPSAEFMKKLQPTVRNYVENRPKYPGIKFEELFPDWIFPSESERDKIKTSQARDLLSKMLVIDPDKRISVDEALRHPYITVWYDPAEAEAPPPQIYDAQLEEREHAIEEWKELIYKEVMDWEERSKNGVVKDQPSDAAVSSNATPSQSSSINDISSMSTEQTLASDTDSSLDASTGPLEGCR

[25] = target: Serine/threonine-protein kinase PAK 4 (Homo sapiens, UniProt O96013);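 also: value obtained within a kinome profiling panel in which PAK4 was one of the panel members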
[26] = target: Dual specificity protein kinase CLK4 (Homo sapiens, UniProt Q9HAZ1)
[27] = target: ALK tyrosine kinase receptor (Homo sapiens, UniProt Q9UM73);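 also: ALK tested as one member of a kinase panel screen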
[28] = target: Leukocyte tyrosine kinase receptor (Homo sapiens, UniProt P29376); assay: Navigating the Kinome. Panel member name: LTK
Aurora kinase B = Aurora kinase B (Homo sapiens, UniProt Q96GD4)
[29] = target: Tyrosine-protein kinase ABL1 (Homo sapiens, UniProt P00519)
Activated CDC42 kinase 1 = Activated CDC42 kinase 1 (Homo sapiens, UniProt Q07912); assay: Navigating the Kinome. Panel member name: ACK1
Sequence of Activated CDC42 kinase 1 (Q07912 whole entry): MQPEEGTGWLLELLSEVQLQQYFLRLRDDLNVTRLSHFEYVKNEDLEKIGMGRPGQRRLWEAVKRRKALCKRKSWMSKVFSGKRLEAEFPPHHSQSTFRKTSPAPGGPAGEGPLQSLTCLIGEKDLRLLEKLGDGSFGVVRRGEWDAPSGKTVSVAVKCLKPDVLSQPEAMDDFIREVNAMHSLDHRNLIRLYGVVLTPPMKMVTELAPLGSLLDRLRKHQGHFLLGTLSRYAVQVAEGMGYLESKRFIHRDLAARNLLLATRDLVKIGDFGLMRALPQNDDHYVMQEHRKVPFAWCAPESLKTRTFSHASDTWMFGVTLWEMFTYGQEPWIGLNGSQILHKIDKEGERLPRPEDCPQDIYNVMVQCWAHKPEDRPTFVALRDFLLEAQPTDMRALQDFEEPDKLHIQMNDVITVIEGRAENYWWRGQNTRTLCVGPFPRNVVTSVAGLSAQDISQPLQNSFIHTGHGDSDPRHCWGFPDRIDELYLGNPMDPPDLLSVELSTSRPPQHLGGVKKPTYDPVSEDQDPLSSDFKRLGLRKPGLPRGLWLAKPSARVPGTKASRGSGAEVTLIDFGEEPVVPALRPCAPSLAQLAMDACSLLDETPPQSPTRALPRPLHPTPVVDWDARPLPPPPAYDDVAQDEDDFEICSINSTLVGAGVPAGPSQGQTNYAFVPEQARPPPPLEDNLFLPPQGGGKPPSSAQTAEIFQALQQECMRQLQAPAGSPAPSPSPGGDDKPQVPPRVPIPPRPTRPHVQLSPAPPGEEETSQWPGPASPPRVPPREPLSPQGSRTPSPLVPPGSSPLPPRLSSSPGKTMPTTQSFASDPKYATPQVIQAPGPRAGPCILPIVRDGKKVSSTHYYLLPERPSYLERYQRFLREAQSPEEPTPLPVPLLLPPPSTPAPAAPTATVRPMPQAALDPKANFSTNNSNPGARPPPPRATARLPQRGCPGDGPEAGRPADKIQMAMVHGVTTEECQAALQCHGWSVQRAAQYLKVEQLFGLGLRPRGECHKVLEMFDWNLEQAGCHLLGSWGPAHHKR

[30] = target: Dual specificity protein kinase CLK2 (Homo sapiens, UniProt P49760)
[31] = target: G protein-coupled receptor kinase 5 (Homo sapiens, UniProt P34947); assay: Navigating the Kinome. Panel member name: GPRK5
[32] = target: BDNF/NT-3 growth factors receptor (Homo sapiens, UniProt Q16620);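 also: NTRK2 measured as one member of a broad kinome-wide kinase profiling panel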
[33] = target: Tyrosine-protein kinase JAK2 (Homo sapiens, UniProt O60674);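 also: JAK2 tested as one member of a kinase panel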
LIM domain kinase 1 = LIM domain kinase 1 (Homo sapiens, UniProt P53667); assay: Navigating the Kinome. Panel member name: LIMK1
[34] = target: Tyrosine-protein kinase Lck (Homo sapiens, UniProt P06239);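 also: lck was assayed as one member of a kinase panel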
Sequence of Tyrosine-protein kinase Lck (P06239 whole entry): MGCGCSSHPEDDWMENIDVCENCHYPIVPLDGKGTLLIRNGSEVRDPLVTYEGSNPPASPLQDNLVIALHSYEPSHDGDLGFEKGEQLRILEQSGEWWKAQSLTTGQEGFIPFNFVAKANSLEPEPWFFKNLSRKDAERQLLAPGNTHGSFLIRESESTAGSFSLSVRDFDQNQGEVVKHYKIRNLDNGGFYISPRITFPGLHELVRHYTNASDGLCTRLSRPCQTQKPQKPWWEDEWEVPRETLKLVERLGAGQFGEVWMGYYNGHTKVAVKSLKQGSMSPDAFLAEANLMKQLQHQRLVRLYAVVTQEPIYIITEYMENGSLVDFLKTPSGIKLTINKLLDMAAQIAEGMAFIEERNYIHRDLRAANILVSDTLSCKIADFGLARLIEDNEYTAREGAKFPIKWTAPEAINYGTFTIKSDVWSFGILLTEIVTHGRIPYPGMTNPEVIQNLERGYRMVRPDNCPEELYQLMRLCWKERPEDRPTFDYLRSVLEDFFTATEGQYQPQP

[35] = target: Serine/threonine-protein kinase Chk1 (Homo sapiens, UniProt O14757);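 also: measured as one member of a kinome-wide kinase profiling panel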
[36] = target: Protein kinase C theta type (Homo sapiens, UniProt Q04759); assay: Navigating the Kinome. Panel member name: PRKCQ
[37] = target: Serine/threonine-protein kinase TAO1 (Homo sapiens, UniProt Q7L7X3)
Sequence of Serine/threonine-protein kinase TAO1 (Q7L7X3 whole entry): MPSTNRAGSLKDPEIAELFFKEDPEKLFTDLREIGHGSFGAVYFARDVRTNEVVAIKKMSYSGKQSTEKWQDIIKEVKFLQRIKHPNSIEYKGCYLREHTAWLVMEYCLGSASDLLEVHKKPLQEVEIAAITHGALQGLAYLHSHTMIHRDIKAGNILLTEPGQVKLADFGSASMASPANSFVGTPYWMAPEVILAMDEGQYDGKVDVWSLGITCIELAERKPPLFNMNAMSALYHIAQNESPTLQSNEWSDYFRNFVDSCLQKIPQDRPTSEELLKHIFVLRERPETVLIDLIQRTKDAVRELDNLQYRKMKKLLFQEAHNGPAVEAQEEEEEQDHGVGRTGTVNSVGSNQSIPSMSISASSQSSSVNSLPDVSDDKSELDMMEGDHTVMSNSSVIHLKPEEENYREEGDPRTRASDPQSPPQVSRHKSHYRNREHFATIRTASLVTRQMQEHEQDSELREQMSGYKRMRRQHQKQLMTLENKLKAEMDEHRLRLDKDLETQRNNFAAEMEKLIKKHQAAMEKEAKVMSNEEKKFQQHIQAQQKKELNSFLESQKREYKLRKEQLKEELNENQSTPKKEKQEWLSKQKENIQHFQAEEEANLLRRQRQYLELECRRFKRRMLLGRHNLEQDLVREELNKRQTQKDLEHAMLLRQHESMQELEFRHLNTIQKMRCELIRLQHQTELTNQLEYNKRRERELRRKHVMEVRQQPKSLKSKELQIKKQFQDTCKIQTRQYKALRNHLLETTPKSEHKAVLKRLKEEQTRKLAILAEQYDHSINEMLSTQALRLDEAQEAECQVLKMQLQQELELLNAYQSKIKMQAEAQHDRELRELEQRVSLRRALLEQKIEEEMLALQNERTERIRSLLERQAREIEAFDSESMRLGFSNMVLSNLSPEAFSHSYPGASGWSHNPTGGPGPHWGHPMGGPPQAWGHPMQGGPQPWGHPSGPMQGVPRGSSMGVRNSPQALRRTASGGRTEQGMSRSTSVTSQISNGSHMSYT

[38] = target: Serine/threonine-protein kinase TBK1 (Homo sapiens, UniProt Q9UHD2); assay: Navigating the Kinome. Panel member name: TBK1
[39] = target: Cyclin-dependent kinase 7 (Homo sapiens, UniProt P50613);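 also: value comes from a kinome-wide kinase profiling panel in which CDK7 is one member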
[40] = target: Leucine-rich repeat serine/threonine-protein kinase 2 (Homo sapiens, UniProt Q5S007);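 also: value from a broad kinome-wide panel profiling study in which LRRK2 was one of the kinases tested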
[41] = target: Mitogen-activated protein kinase kinase kinase kinase 2 (Homo sapiens, UniProt Q12851);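 also: measured as one member of a kinome-wide kinase panel, with MAP4K2 as the panel entry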
[42] = target: Mitogen-activated protein kinase 14 (Homo sapiens, UniProt Q16539);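 also: part of a kinome-wide panel, MAPK14 entry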
[43] = target: Serine/threonine-protein kinase pim-1 (Homo sapiens, UniProt P11309)
[44] = target: Insulin-like growth factor 1 receptor (Homo sapiens, UniProt P08069); assay: Navigating the Kinome. Panel member name: IGF1R
[45] = target: Glycogen synthase kinase-3 alpha (Homo sapiens, UniProt P49840);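 also: GSK3A result taken from a broad kinome-wide kinase panel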
[46] = target: Tyrosine-protein kinase JAK3 (Homo sapiens, UniProt P52333)
[47] = target: Glycogen synthase kinase-3 beta (Homo sapiens, UniProt P49841);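 also: value comes from a broad kinome profiling panel, with GSK3B as the panel member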
[48] = target: Platelet-derived growth factor receptor alpha (Homo sapiens, UniProt P16234); assay: Navigating the Kinome. Panel member name: PDGFRA
[49] = target: Dual specificity mitogen-activated protein kinase kinase 1 (Homo sapiens, UniProt Q02750); assay: Navigating the Kinome. Panel member name: MAP2K1

- Ki [1]: > 2.51 µM (inactive)
- Ki (Activin receptor type-1): > 3.98 µM (inactive)
- Ki [2]: > 3.98 µM (inactive)
- Ki [3]: > 3.16 µM (inactive)
- Ki [4]: > 3.98 µM (inactive)
- Ki [5]: > 3.16 µM (inactive)
- Ki [6]: > 2.51 µM (inactive)
- Ki [7]: > 3.16 µM (inactive)
- Ki [8]: > 3.98 µM (inactive)
- Ki [9]: > 2.51 µM (inactive)
- Ki [10]: 3.16 µM (active)
- Ki [11]: > 3.98 µM (inactive)
- Ki [12]: > 3.98 µM (inactive)
- Ki [13]: > 2.51 µM (inactive)
- Ki [14]: > 3.16 µM (inactive)
- Ki [15]: > 3.16 µM (inactive)
- Ki [16]: > 3.16 µM (inactive)
- Ki [17]: > 3.98 µM (inactive)
- Ki [19]: > 3.98 µM (inactive)
- Ki [20]: > 3.16 µM (inactive)
- Ki [21]: > 3.16 µM (inactive)
- Ki [22]: > 5.01 µM (inactive)
- Ki [23]: > 6.31 µM (inactive)
- Ki [24]: > 3.98 µM (inactive)
- Ki [25]: > 5.01 µM (inactive)
- Ki [26]: > 2.51 µM (inactive)
- Ki [27]: > 6.31 µM (inactive)
- Ki [28]: > 2.51 µM (inactive)
- Ki (Aurora kinase B): > 3.98 µM (inactive)
- Ki [29]: > 2.51 µM (inactive)
- Ki (Activated CDC42 kinase 1): > 3.98 µM (inactive)
- Ki [30]: > 3.98 µM (inactive)
- Ki [31]: > 3.98 µM (inactive)
- Ki [32]: > 3.98 µM (inactive)
- Ki [33]: > 2.51 µM (inactive)
- Ki (LIM domain kinase 1): > 3.16 µM (inactive)
- Ki [34]: > 6.31 µM (inactive)
- Ki [35]: > 3.16 µM (inactive)
- Ki [36]: > 2.51 µM (inactive)
- Ki [37]: > 6.31 µM (inactive)
- Ki [38]: > 3.16 µM (inactive)
- Ki [39]: > 3.98 µM (inactive)
- Ki [40]: > 2.51 µM (inactive)
- Ki [41]: > 2.51 µM (inactive)
- Ki [42]: > 3.98 µM (inactive)
- Ki [43]: > 6.31 µM (inactive)
- Ki [44]: > 2.51 µM (inactive)
- Ki [45]: > 3.98 µM (inactive)
- Ki [46]: > 5.01 µM (inactive)
- Ki [47]: > 3.98 µM (inactive)
- Ki [48]: 0.2 µM (active)
- Ki [49]: > 3.16 µM (inactive)
Structure (SMILES): Cc1cc(OCc2ccc(Cl)c(Cl)c2)ccc1CN1CC(C(=O)O)C1
- Ki [18]: > 5.01 µM (inactive)
